The values below come from article PMC10041525, “New Dual Inhibitors of Bacterial Topoisomerases with Broad-Spectrum Antibacterial Activity and In Vivo Efficacy against Vancomycin-Intermediate Staphylococcus aureus” (Journal of Medicinal Chemistry, 2023).

For one series, the system named is H. influenzae ATCC 49247. The arrangement: method as in earlier work. To be noted: QC range for H. influenzae ATCC 49247, ref CLSI; cited from earlier work.
The target in series [1] is T1, human DNA topoisomerase IIα (Homo sapiens, UniProt P11388).
T1 construct: purchased Inspiralis
T1 sequence (P11388 whole entry): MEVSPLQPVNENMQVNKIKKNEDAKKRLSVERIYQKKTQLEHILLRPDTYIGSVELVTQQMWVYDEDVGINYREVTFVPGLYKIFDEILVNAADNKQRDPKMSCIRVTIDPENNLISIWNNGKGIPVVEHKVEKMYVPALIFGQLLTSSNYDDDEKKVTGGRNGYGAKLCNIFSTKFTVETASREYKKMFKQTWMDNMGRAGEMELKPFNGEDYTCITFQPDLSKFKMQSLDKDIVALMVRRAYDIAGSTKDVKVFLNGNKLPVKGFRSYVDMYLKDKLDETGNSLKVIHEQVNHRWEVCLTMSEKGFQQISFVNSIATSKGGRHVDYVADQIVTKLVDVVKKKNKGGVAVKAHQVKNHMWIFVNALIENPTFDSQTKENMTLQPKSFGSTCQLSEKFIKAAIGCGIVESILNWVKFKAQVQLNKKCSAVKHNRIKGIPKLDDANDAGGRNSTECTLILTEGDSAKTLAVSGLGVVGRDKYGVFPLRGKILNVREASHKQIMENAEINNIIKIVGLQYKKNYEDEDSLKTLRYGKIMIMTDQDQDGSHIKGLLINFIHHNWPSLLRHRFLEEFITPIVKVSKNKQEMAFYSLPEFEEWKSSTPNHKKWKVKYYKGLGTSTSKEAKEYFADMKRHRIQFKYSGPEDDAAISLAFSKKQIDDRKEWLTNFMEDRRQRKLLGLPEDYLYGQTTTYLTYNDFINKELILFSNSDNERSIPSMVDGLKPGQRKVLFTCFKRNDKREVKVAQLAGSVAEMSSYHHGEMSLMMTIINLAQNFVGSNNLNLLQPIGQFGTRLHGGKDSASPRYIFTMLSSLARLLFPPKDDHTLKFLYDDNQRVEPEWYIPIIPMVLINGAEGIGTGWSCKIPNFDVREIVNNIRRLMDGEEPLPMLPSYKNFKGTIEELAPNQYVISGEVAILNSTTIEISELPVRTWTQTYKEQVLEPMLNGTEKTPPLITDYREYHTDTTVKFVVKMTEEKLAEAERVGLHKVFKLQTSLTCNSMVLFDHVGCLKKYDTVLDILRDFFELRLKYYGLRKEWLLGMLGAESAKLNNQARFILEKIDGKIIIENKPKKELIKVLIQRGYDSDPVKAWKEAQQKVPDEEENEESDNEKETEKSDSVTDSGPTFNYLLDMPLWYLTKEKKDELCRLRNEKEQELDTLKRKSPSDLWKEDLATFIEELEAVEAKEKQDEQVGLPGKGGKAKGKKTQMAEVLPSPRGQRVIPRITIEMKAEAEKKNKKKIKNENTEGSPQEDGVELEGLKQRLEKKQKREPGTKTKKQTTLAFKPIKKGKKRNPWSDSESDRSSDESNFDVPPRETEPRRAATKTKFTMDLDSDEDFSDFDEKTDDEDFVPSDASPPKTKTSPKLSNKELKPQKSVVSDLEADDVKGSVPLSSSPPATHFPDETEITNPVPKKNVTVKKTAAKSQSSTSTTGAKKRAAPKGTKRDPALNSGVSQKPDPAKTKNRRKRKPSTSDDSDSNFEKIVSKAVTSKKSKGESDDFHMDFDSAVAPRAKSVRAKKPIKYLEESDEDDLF
The series can be described thus: DNA relaxation assay. The class given is biochemical. The protocol: Seven concentrations of the inhibitors were used to determine IC50 values which were then calculated with GraphPad Prism 6.0 software. Three independent measurements were performed to determine IC50 values, and mean values are reported as the final result.

The target of the next series is A. baumannii DNA gyrase (Acinetobacter baumannii, UniProt A0ABX6CA01). The series can be described thus: gel-based supercoiling assay. The class given is biochemical.
Sequence of A. baumannii DNA gyrase (A0ABX6CA01 1-822): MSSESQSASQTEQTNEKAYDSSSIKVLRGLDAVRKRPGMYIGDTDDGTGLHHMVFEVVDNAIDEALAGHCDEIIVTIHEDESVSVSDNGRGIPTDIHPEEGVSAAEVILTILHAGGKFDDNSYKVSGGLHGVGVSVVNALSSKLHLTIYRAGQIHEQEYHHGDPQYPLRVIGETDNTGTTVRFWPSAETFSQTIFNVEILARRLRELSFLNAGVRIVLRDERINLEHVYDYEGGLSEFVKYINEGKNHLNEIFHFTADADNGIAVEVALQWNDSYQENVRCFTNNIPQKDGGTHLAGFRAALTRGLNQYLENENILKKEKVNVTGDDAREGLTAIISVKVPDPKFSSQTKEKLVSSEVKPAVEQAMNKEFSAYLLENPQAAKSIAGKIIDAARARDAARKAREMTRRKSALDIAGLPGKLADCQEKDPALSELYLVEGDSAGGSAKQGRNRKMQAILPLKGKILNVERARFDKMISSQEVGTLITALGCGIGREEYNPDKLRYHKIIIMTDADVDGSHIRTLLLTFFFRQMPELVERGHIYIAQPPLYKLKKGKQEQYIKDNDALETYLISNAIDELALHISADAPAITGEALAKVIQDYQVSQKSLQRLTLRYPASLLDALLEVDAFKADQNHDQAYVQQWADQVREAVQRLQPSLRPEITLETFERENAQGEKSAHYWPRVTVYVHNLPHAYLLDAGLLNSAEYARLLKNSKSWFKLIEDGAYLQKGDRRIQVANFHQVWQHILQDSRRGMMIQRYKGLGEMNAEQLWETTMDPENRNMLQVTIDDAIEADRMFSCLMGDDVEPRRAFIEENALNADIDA
Sequence of A. baumannii DNA gyrase (A0ABX6CII0 1-904 partner): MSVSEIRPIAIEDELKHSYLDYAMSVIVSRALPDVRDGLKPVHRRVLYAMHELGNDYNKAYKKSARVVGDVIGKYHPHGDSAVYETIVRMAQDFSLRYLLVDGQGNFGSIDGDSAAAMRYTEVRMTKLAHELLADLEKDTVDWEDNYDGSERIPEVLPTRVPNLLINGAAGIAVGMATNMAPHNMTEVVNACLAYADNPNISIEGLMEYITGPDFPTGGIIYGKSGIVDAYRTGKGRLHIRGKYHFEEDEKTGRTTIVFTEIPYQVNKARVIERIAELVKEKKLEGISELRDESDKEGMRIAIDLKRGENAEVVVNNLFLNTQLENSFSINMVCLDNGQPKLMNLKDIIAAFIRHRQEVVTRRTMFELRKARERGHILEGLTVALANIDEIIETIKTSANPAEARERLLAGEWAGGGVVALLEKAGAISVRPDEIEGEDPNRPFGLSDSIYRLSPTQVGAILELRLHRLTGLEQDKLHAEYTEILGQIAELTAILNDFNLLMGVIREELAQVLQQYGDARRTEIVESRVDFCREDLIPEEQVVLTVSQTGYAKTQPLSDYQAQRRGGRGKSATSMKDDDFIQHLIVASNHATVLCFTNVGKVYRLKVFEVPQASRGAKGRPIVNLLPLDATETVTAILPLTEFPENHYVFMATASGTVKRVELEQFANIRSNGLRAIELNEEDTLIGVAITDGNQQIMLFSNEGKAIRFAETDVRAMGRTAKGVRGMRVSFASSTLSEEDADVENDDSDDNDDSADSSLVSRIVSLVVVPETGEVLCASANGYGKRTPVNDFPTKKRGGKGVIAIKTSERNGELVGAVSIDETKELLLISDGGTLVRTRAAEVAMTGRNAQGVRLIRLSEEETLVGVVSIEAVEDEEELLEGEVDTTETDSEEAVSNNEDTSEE
A short description of another series: hemolysis assay. The format is cell-based. To be noted: human, red blood cells, pH 7.4; read-out: Haemolysis. As for the experimental part: RBCs were washed three times in Tyrode buffer (130 mM NaCl, 4 mM KCl, 2.8 mM Na acetate, 1 mM MgCl2, 10 mM HEPES, 10 mM glucose, 1 mM CaCl2, adjusted to pH 7.4) and resuspended in the same buffer. Final concentrations in the hemolysis assay were 100 μM compound, 1% DMSO, and 50% RBC, assayed in a 200 μL volume in a microtiter plate. The mixture was incubated at 37 °C for 45 min with shaking (250 rpm). After incubation, RBCs were removed by centrifugation, clear plasma was transferred to a fresh plate, and the amount of hemoglobin was measured using a spectrophotometer at 540 nm. The complete lysis control contained 2% Triton X-100 (in Tyrode buffer) instead of compound; the negative control contained Tyrode buffer but no compound. Percent hemolysis was calculated as: [Abs compound] – [Abs negative control]/[Abs complete lysis control] – [Abs negative control] × 100. Values greater than 1% hemolysis at 100 μM were regarded as a red flag.

In series [2] the test system is E. coli ATCC 25922, CH3130 ΔtolC, CGSC 5163 D22. The series can be described thus: MIC, wild-type vs efflux-defective and lps mutant. The format is cell-based. To be noted: Escherichia coli.
Series [3] in a line: thermodynamic solubility in phosphate buffer, LC-MS/MS. To be noted: 100 mM phosphate buffer pH 7.4, 24 h, 37 °C.
Protocol: 0.5 mL of 67 mM phosphate
in a rotational shaker (400 rpm) at 23 °C. After the incubation an aliquot of 200 µL was
1 µL of the supernatant was transferred to 96-well plate in triplicate wells, diluted 100×
with acetonitrile/H2O (60/40) containing 50 nM warfarin as internal standard and analyzed
performed comparing to a separately constructed standard series (10 nM to 1000 nM).
shaker (900 rpm) at 37 °C. After the incubation an aliquot of 200 µL was transferred to a
conical glass insert and centrifuged for 30 min at 10 000 × g at 37 °C. The supernatant was
transferred to a new HPLC vial appropriately diluted (100×, 1000×, 5000×) with
acetonitrile/H2O (50/50) containing 50 nM warfarin as internal standard and analyzed by
performed comparing to a separately constructed standard curve between 3 nM to 20000
The nature of a further series: in vitro. To be noted: mouse. As for the experimental part:
The assay was performed in cryopreserved mouse hepatocytes. First, the vials were thawed, the suspension added to “thawing media” and centrifuged to pellet the hepatocytes. The cell pellet was resuspended in Williams medium E (Invitrogen A1217601). […] A mixture of midazolam, diclofenac, and bufuralol at 1 μM was used as a positive control. The incubation was carried out on a heater-shaker at 37 °C, in a 24-well Picoplate (round bottom, PerkinElmer), with total incubation volume of 700 μL. […] The plate was incubated at 37 °C for 60 s. A zero sample was taken by removing 100 μL to a 96-well plate, and the reaction was quenched by adding 100 μL of acetonitrile with 50 nM warfarin as the internal standard. […] The LC–MS/MS method was the same as described above in Chapter LogD Determination.

Series [4] is described as follows: mitochondrial toxicity glu/gal assay. The format is cell-based. To be noted: human, read-out: cell viability (ATP), % of control. The protocol: (§1) HepG2 cells were seeded in two 96-well plates at a density of 50,000 cells per well in 100 μL of growth medium. For the first plate, the growth medium contained glucose and for the second plate, it contained galactose. Cells were incubated overnight in a 5% CO2 atmosphere at 37 °C and allowed to attach onto the wells. […] The medium contained positive control (Rotenone). […] Luminescence was measured with Tecan Infinite 200 pro luminometer, and the values from each well treated with compound were compared to the values given by the negative control (medium only). The inhibition of mitochondrial function was determined by comparing ATP levels in galactose and glucose exposed cells. […]

A further series concerns HepG2 cells. The series is described as follows: mitochondrial toxicity glu/gal assay. The class given is cell-based. To be noted: human. The protocol: as §1
Series [5] has as its system P. aeruginosa PAO1, PAO750. The series is described as follows: MIC, wild-type vs efflux-defective. The class given is cell-based. To be noted: Pseudomonas aeruginosa.
The next series concerns the target T2, P. aeruginosa DNA gyrase (Pseudomonas aeruginosa, UniProt Q9I7C2).
T2 construct: purchased Inspiralis
The series can be described thus: supercoiling HTS assay. The class given is biochemical. As for the experimental part:
The assay to determine IC50 values was performed using assay kits from Inspiralis in accordance with previously described procedures.[43] Seven concentrations of the inhibitors were used to determine IC50 values which were then calculated with GraphPad Prism 6.0 software. Three independent measurements were performed to determine IC50 values, and mean values are reported as the final result.

≈ marks a conversion by molar mass, not a printed value. Where two headings read alike, the source gives them in different places. Some results are limits rather than exact numbers.

T2 sequence (Q9I7C2 whole entry): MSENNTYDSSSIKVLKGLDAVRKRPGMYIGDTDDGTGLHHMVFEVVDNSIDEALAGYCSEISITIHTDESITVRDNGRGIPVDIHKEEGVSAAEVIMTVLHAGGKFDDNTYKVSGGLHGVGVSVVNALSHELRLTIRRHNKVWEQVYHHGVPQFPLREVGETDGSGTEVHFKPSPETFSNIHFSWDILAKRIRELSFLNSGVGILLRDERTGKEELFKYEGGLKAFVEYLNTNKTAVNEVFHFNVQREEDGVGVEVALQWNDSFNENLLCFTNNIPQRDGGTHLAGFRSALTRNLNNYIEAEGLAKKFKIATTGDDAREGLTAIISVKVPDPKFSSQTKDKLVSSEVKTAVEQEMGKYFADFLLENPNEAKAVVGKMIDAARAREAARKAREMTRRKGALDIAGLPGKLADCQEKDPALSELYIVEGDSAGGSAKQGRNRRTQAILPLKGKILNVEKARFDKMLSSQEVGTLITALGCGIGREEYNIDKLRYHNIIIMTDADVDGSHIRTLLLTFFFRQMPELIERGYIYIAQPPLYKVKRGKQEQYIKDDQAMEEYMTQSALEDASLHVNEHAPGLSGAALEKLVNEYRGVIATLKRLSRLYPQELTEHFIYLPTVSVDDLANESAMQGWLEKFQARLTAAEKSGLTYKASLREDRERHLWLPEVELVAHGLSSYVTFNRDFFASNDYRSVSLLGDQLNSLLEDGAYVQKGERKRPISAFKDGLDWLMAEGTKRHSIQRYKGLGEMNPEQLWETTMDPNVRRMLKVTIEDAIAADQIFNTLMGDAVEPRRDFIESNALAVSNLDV
T2 sequence (P48372 whole entry, further chain): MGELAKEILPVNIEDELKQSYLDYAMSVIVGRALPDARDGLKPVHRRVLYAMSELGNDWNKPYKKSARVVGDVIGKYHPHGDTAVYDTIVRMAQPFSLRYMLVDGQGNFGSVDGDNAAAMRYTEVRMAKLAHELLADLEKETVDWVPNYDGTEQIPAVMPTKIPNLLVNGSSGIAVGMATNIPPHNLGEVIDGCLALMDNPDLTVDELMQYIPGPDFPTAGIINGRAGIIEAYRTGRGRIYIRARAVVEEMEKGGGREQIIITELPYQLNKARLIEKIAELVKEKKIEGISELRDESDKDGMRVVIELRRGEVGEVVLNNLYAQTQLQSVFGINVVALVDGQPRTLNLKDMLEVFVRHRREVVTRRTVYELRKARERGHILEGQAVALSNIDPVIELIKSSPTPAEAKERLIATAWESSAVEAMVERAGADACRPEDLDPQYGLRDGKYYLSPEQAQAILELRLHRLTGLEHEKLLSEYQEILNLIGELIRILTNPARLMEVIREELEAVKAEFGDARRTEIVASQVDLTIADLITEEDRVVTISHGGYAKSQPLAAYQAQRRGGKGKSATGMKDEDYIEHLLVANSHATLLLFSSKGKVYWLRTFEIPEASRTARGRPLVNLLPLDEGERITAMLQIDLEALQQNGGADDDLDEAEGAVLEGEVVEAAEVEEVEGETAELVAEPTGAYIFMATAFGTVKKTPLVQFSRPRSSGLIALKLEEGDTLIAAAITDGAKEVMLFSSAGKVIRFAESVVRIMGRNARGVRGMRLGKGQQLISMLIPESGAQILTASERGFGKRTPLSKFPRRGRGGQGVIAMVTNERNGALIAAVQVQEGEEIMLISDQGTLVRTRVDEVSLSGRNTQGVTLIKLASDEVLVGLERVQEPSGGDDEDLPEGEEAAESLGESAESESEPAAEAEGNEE
Protocol for A. baumannii DNA gyrase: In all experiments, the activity of the
enzymes was determined prior to the testing of the compound and 1 unit (U) was defined as the
amount of enzyme required to just fully supercoil or decatenate the substrate. This amount of
enzyme was initially used in determination of control inhibitor activity. These experiments were
performed in duplicate. […] The final DMSO
concentration was 1% for all assays. All measurements were performed in quadruplicates. The
condition for each reaction were as follows:
− S. aureus gyrase supercoiling assay
1 U of S. aureus gyrase was incubated with 0.5 µg of relaxed pBR322 DNA in a 30 µL reaction at
magnesium acetate, 10 mM DTT, 2 mM ATP, 500 mM potassium glutamate and 0.05 mg/mL
− S. aureus topo IV decatenation assay
1 U of S. aureus topo IV was incubated with 20 µg kDNA in a 30 µL reaction at 37 °C for 30
mM ATP, 350 mM potassium glutamate and 0.05 mg/mL albumin.
− A. baumannii gyrase supercoiling assay
1 U of A. baumannii gyrase was incubated with 0.5 µg of relaxed pBR322 DNA in a 30 µL reaction
blue), before being loaded on a 1.0% TAE gel run at 80V for 2 hours. Bands were visualised by
ethidium bromide staining for 20 minutes and destaining for 20 minutes. Gels were scanned using
documentation equipment (GeneGenius, Syngene, Cambridge, UK) and % inhibition levels were
measured by determining the relative fluorescence of the supercoiled band using gel scanning
software. […]

As for `C[C@H]1COc2c(N3CCN(C)CC3)c(F)cc3c(=O)c(C(=O)O)cn1c23.C[C@H]1COc2c(N3CCN(C)CC3)c(F)cc3c(=O)c(C(=O)O)cn1c23.O` [Levofloxacin, levofloxacin], the “MIC, CLSI Range” value in the series with H. influenzae ATCC 49247 was 0,008 - 0,03 µg/mL.

Regarding `CC1(C)S[C@@H]2[C@H](NC(=O)[C@H](N)c3ccccc3)C(=O)N2[C@H]1C(=O)O` [Ampicillin, ampicillin], the “MIC, CLSI Range” value with H. influenzae ATCC 49247 is 2 to 8 µg/mL.

With `Cc1[nH]c(C(=O)Nc2nc3c(N4CCOCC4)cc(C(=O)O)cc3s2)c(Cl)c1Cl` [7a, 2-(3,4-Dichloro-5-methyl-1H-pyrrole-2-carboxamido)-4-morpholinobenzo[d]thiazole-6-carboxylic Acid], the IC50 (usually the midpoint of a concentration-inhibition curve) in series [1] amounted to 17000 nM. Besides, half-maximal inhibition at A. baumannii DNA gyrase (IC50) was put at 2.42 ± 0.28 nM. Also, the hemolysis at 45 min, 100 μM in “hemolysis assay” was 0.28 ± 0.01%. Moreover, the lowest concentration to inhibit growth in series [2] (ATCC25922, E. coli ATCC 25922) (MIC) was 8 µg/mL (≈ 17.6 µM). Further, the MIC (as a rule, the lowest concentration that inhibits growth of the organism) in series [2] (ATCC25922, E. coli CGSC 5163 D22, lps mutant, hypersensitive) turned out to be 2 µg/mL (≈ 4.39 µM). This molecule showed an MIC in series [2] (ATCC25922, E. coli CH3130 ΔtolC, efflux-defective) of under 0.125 µg/mL. Besides, the “thermodynamic solubility, second method” value in series [3] came out at 167.9 µM (≈ 76.4 µg/mL). The “ClH (pred.)” value in the series “in vitro” was 0.05 mL/min. In “in vitro” (hepatocytes), the “Clint (pred. in vivo)” value came out at 2.1 mL/min; the half-life (in general, how long it takes for the measured level to halve) at 1.5 h, 1 µM came to 2.67 h; the hepatocyte CLint (usually a measure of how fast metabolising enzymes remove a compound, apart from limits set by blood flow) at 1.5 h, 1 µM stood at 9 µL/min/1e6 cells. For the same molecule, in [4] (galactose), the viability (usually a read-out of living cells in per cent, often relative to untreated cells) at 10 µM came out at 98%; the viability at 50 µM stood at 98%; the viability at 100 µM amounted to 97%; the viability at 300 µM is 98%. Besides, in series [4] (galactose), the viability at 600 µM stood at 94% and the viability at 1000 µM amounted to 83%. Also, in series [4] (glucose), the viability at 10 µM stood at 109%, the viability at 50 µM turned out to be 107%, the viability at 100 µM was found to be 105% and the viability at 300 µM amounted to 99%. Also, in [4] (glucose), the viability at 600 µM was 95% and the viability at 1000 µM was found to be 79%. In the series with HepG2 cells, the “mitotoxic concentration (not mitotoxic up to)” value was over 1000 µM. The molecule further showed a minimum inhibitory concentration (MIC) in [5] (PAO1, P. aeruginosa PAO1) of over 64 µg/mL. In series [5] (PAO1, P. aeruginosa PAO750, efflux-defective), this molecule showed an MIC of 0.25 µg/mL (≈ 0.549 µM). Moreover, the IC50 at P. aeruginosa DNA gyrase was under 10 nM.
